pIC50: −log10 of the molar value.
Legend:
[1] = biological target: T1, human full length PIK3KA Wild-type (p110α/p85α complex) (Homo sapiens, UniProt P42336); assay: PI3K-alpha kinase (PIK3CA) biochemical activity, wild-type, ADP-Glo; details: PI3K-α (PIK3CA) biochemical
T1 construct: Recombinant, catalytically active human full length PIK3KA Wild-type and H1047R mutant were purchased as 1:1 complex; 6xHis (N); purchased EMD Millipore Sigma 14-602M
Text: (§1) PI3K-Alpha Kinase (PIK3CA) Activity, Wild-Type and H1047R Mutant and Determining IC50 Values for Inhibitors
(§2) Recombinant, catalytically active human full length PIK3KA Wild-type and H1047R mutant were purchased as 1:1 complex of N-terminal 6× his tagged p110α (catalytic) and untagged p85α (regulatory subunit) from EMD Millipore Sigma (cat. no. 14-602M and 14-792M, respectively). PIP2diC8 (Avanti Polar Lipids Inc., cat. no. 850185) or Soy PI (Avanti Polar Lipids Inc., cat. No. 840044P) was used as lipid substrate. PIP2diC8 or PI lyophilized powder was dissolved in milliQ water to a concentration of 1 mM just before use. 10 mM stock compounds in DMSO were serially diluted 1:3 to generate a 10-point curve and plated using an acoustic liquid handler system (Echo 550 series instrument, Labcyte). A 10× intermediate compound plate (200 uM starting compound concentration and 10% DMSO) was prepared before starting the reaction. A typical reaction mixture (50 uL) comprised 40 mM HEPES buffer, pH 7.4, 25 mM MgCl2, 0.01% v/v triton-X-100, 1% v/v DMSO, 20 mM NaCl, 1-5 nM WT or H1047R PI3K protein, 20 uM ATP, and 50 uM PIP2diC8 or Soy PI. 1% DMSO buffer alone without test compound was employed as MAX control (full activity in the absence of any inhibitor), and no enzyme control was used to determine the level of background Adenosine 5′-diphosphate (ADP) (MIN control). First, Wild-type (WT) and H1047R mutant protein in kinase buffer with all components except ATP were incubated with or without compound at 27° C. for 1 h. After the pre-incubation, the reaction was initiated by the addition of 20 uL of 50 uM ATP (20 uM final concentration). The reaction was allowed to proceed until about 10% conversion of ATP (2 uM ADP) at 27° C. After that time, 5 uL of reaction was mixed with 5 uL of ADP-Kinase Glo Reagent (ADP-Glo Kinase assay kit, Promega cat. no. V9102) supplemented with MgCl2 10 mM to stop the reaction and deplete the remaining ATP for 40 min at room temperature. Then, 10 uL of Kinase Detection Reagent (ADP-Glo Kinase assay kit, Promega cat. no. V9102) was added to simultaneously convert ADP to ATP and allow the newly synthesized ATP to be measured using a luciferase/luciferin reaction. After 30 min at room temperature the light generated was measured using a luminometer (EnVision plate reader, Perkin Elmer). Process data through Genedata-Screener tool. Relative IC50 values are determined using luminescence units by calculating percent inhibition with respect to on-plate “MIN” and “MAX” controls. Data was analyzed using a 4-parameter nonlinear logistic equation (four-parameter logistic concentration-response curve): Y=bot+[(top−bot)/1+(x/IC50)slope] where Y=% inhibition, X=concentration yielding y % inhibition, Bottom=minimum value of y attained by curve, Top=maximum value of y attained by curve and Slope=steepness of curve at IC50. % Inh=[(median Max−x/median Max−median Min)]·100 IC50: concentration of compound that reduces a given response (ligand binding, enzyme response) by 50%. IC50 relative: concentration giving half the compound's maximum response.
(§3) For IC50 values shown in Table A, “A” means IC50<0.5 μM; “B” means IC50 ranging between 0.5 μM and 1.0 μM; “C” means IC50 ranging between 1 μM and 5 μM; “D” means IC50 ranging between 5 μM and 10 μM; “E” means IC50>10 μM.

[2] = biological target: T2, human full length PIK3KA H1047R mutant (p110α/p85α complex) (Homo sapiens, UniProt P42336, H1047R); assay: PI3K-alpha kinase (PIK3CA) biochemical activity, H1047R mutant, ADP-Glo; details: for pIC50: PI3K-α (PIK3CA) biochemical, H1047R mutant
T2 construct: Recombinant, catalytically active human full length PIK3KA Wild-type and H1047R mutant were purchased as 1:1 complex; 6xHis (N); purchased EMD Millipore Sigma 14-792M
T2 sequence (P42336 whole entry H1047R): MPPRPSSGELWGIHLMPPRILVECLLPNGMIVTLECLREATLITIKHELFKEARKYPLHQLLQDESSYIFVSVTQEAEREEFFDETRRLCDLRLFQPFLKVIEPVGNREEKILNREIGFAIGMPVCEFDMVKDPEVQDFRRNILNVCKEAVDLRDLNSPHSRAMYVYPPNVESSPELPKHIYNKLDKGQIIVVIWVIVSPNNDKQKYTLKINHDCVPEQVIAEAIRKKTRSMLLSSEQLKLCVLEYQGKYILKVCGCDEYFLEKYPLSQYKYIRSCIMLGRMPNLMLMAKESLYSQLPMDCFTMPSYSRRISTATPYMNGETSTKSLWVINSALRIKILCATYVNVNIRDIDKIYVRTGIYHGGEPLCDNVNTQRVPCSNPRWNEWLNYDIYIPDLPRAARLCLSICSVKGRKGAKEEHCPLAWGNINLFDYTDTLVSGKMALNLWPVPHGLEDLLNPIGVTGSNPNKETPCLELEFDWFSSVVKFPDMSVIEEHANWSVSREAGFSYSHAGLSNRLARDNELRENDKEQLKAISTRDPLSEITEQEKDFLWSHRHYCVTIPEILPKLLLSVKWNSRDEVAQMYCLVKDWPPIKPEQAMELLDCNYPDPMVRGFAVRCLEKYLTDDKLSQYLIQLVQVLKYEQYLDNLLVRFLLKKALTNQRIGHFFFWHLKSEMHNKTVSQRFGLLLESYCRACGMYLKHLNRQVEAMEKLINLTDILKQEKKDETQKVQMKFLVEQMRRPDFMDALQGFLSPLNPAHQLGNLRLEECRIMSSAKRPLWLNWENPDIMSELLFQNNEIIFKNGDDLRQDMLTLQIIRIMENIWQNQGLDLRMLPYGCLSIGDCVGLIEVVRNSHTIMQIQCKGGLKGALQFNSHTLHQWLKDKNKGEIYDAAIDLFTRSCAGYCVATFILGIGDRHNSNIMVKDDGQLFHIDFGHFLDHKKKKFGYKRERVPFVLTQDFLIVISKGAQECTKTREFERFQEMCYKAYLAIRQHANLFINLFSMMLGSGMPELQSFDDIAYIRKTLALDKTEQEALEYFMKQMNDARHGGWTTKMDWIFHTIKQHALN
T2 sequence (P27986 whole entry partner): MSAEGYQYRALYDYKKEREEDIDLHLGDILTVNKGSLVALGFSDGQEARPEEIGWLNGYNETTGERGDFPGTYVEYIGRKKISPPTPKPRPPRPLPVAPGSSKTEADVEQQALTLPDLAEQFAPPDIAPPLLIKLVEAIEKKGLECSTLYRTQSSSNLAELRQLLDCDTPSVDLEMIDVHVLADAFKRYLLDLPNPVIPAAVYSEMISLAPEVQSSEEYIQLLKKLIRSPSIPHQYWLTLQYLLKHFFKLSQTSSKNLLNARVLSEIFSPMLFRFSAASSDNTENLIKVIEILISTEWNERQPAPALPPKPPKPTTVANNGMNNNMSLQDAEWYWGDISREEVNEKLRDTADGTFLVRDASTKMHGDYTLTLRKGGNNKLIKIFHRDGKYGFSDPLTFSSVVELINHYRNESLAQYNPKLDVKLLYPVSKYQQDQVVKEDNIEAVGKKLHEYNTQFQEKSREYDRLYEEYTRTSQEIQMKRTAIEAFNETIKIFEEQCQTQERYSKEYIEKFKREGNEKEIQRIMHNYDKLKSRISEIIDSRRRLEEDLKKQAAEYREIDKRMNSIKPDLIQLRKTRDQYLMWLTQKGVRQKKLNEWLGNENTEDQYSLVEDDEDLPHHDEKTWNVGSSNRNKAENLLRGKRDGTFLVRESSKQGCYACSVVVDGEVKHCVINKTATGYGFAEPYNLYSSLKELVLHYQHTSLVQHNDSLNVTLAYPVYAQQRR
Text: as §1, §2, §3

[3] = PIP2diC8 lipid substrate (footnote 1)

| Compound | pIC50 ([1]; Soy PI lipid substrate) | pIC50 ([2]; Soy PI lipid substrate) | pIC50 [1, 3] | pIC50 [2, 3] | IC50 WT/IC50 H1047R ([2]; ratio of biochemical IC50 wild-type to H1047R mutant, Soy PI lipid substrate) |
| --- | --- | --- | --- | --- | --- |
| Cc1c(-c2ccccc2)oc2c([C@@H](C)Nc3ccccc3C(=O)O)cc(F)cc2c1=O [Example 72, 2-[[(1R)-1-(6-Fluoro-3-methyl-4-oxo-2-phenyl-chromen-8-yl)ethyl]amino]benzoic acid 2,2,2-trifluoroacetic acid] | 5.30 to 6.00 | 5.30 to 6.00 |  |  |  |
| Cc1cc(C(C)Nc2cccc(F)c2C(=O)O)c2oc(-c3ccccc3F)cc(=O)c2c1 (stereo not drawn) [Example 97, 2-Fluoro-6-[1-[2-(2-fluorophenyl)-6-methyl-4-oxo-chromen-8-yl]ethylamino]benzoic acid 2,2,2-trifluoroacetic acid] | 5.30 to 6.00 | > 6.30 |  |  |  |
| Cc1cc(C(C)Nc2ccccc2C(=O)O)c2oc(-c3ccc(N4CCCC4)cc3)cc(=O)c2c1 (single isomer, unassigned; isomer 1) [Example 54, 2-[1-[6-Methyl-4-oxo-2-(4-pyrrolidin-1-ylphenyl)chromen-8-yl]ethylamino]benzoic acid, Isomer 1] | < 5.00 | 6.00 to 6.30 |  |  |  |
| Cc1cc(C(C)Nc2ccccc2C(=O)O)c2oc(-c3ccc(C4(C#N)CC4)cc3)cc(=O)c2c1 (single isomer, unassigned; isomer 2) [Example 53, 2-[1-[2-[4-(1-Cyanocyclopropyl)-phenyl]-6-methyl-4-oxo-chromen-8-yl]ethylamino]benzoic acid, Isomer 2] | 5.30 to 6.00 | > 6.30 |  |  |  |
| Cc1cc(C(C)Nc2ccccc2C(=O)O)c2oc(-c3ccc(C4(C#N)CC4)cc3)cc(=O)c2c1 (stereo not drawn) [Example 7, 2-[1-[2-[4-(1-Cyanocyclopropyl)-phenyl]-6-methyl-4-oxo-chromen-8-yl]ethylamino]benzoic acid] |  |  | 6.00 to 6.30 | > 6.30 |  |
| C[C@@H](Nc1ccccc1C(=O)O)c1cc(C(F)(F)F)cc2c(=O)cc(-c3ccc(F)cc3F)oc12 [Example 90, 2-[[(1R)-1-[2-(2,4-Difluorophenyl)-4-oxo-6-(trifluoromethyl)-chromen-8-yl]ethyl]amino]benzoic acid] | 5.00 to 5.30 | > 6.30 |  |  |  |
| Cc1cc(C(C)Nc2ccccc2C(=O)O)c2oc(-c3cccc(-c4cnn(C)c4)c3)cc(=O)c2c1.O=C(O)C(F)(F)F (stereo not drawn) [Example 13, 2-[1-[6-Methyl-2-[3-(1-methylpyrazol-4-yl)phenyl]-4-oxo-chromen-8-yl]ethylamino]benzoic acid 2,2,2-trifluoroacetic acid] | 5.30 to 6.00 | > 6.30 |  |  | *For Example 13, IC50 WT/IC50 H1047R = 7.7 |
| Cc1cc([C@@H](C)Nc2ccccc2C(=O)O)c2oc(-c3ccc(C#N)c(F)c3)cc(=O)c2c1 [Example 56, 2-[[(1R)-1-[2-(4-Cyano-3-fluoro-phenyl)-6-methyl-4-oxo-chromen-8-yl]ethyl]amino]benzoic acid 2,2,2-trifluoroacetic acid] | 5.30 to 6.00 | > 6.30 |  |  |  |
| C[C@@H](Nc1ccccc1C(=O)O)c1cc(F)cc2c(=O)cc(-c3ccccc3)oc12 [Example 24, 2-[[(1R)-1-(6-Fluoro-4-oxo-2-phenyl-chromen-8-yl)ethyl]amino]benzoic acid] | 5.30 to 6.00 | > 6.30 |  |  |  |
| Cc1cc([C@@H](C)Nc2ccc(Br)cc2C(=O)O)c2oc(-c3ccccc3)c(C)c(=O)c2c1 [Example 77, 5-Bromo-2-[[(1R)-1-(3,6-dimethyl-4-oxo-2-phenyl-chromen-8-yl)ethyl]amino]benzoic acid] | 5.30 to 6.00 | > 6.30 |  |  |  |
| Cc1cc([C@@H](C)Nc2c(Cl)ccc(F)c2C(=O)O)c2oc(-c3ccccc3)c(C)c(=O)c2c1 [Example 65, 3-Chloro-2-[[(1R)-1-(3,6-dimethyl-4-oxo-2-phenyl-chromen-8-yl)ethyl]amino]-6-fluoro-benzoic acid] | < 5.00 | < 5.00 |  |  |  |
| Cc1cc([C@@H](C)Nc2ccc(Cl)nc2C(=O)O)c2oc(-c3ccccc3)c(C(F)(F)F)c(=O)c2c1 [Example 139, 6-Chloro-3-[[(1R)-1-[6-methyl-4-oxo-2-phenyl-3-(trifluoromethyl)-chromen-8-yl]ethyl]amino]pyridine-2-carboxylic acid 2,2,2-trifluoroacetic acid] | > 6.30 | > 6.30 |  |  |  |

Continued, in another order:

| pIC50 ([1]; Soy PI lipid substrate) | pIC50 ([2]; Soy PI lipid substrate) | pIC50 [1, 3] | pIC50 [2, 3] | Compound | IC50 WT/IC50 H1047R ([2]; ratio of biochemical IC50 wild-type to H1047R mutant, Soy PI lipid substrate) |
| --- | --- | --- | --- | --- | --- |
| 5.00 to 5.30 | > 6.30 |  |  | Cc1cc([C@@H](C)Nc2ccc(C)nc2C(=O)O)c2oc(-c3ccccc3)cc(=O)c2c1 [Example 46, 6-Methyl-3-[[(1R)-1-(6-methyl-4-oxo-2-phenyl-chromen-8-yl)ethyl]amino]-pyridine-2-carboxylic acid] |  |
|  |  | 5.30 to 6.00 | > 6.30 | Cc1cc([C@@H](C)Nc2ccccc2C(=O)O)c2oc(-c3ccc(F)cc3)cc(=O)c2c1 [Example 19, 2-[[(1R)-1-[2-(4-Fluorophenyl)-6-methyl-4-oxo-chromen-8-yl]ethyl]amino]benzoic acid] |  |
| 6.00 to 6.30 | > 6.30 |  |  | Cc1cc(C(C)Nc2ccc(Cl)nc2C(=O)O)c2oc(-c3ccccc3)c(I)c(=O)c2c1 (single isomer, unassigned; isomer 2) [Example 154, 6-Chloro-3-[1-(3-iodo-6-methyl-4-oxo-2-phenyl-chromen-8-yl)ethylamino]pyridine-2-carboxylic acid, Isomer 2] |  |
| 5.30 to 6.00 | > 6.30 |  |  | COc1ccc(NC(C)c2cc(C)cc3c(=O)c(C)c(-c4ccccc4)oc23)c(C(=O)O)n1 (stereo not drawn) [Example 89, 3-[1-(3,6-Dimethyl-4-oxo-2-phenyl-chromen-8-yl)ethylamino]-6-methoxy-pyridine-2-carboxylic acid 2,2,2-trifluoroacetic acid] |  |
|  |  | > 6.30 | > 6.30 | Cc1cc([C@@H](C)Nc2ccc(F)cc2C(=O)O)c2oc(-c3ccccc3)cc(=O)c2c1 [Example 20, 5-Fluoro-2-[[(1R)-1-(6-methyl-4-oxo-2-plienyl-chromen-8-yl)ethyl]amino]benzoic acid] |  |
| 5.00 to 5.30 | > 6.30 |  |  | Cc1cc(C(C)Nc2sc(C)nc2C(=O)O)c2oc(-c3ccccc3)cc(=O)c2c1 (stereo not drawn) [Example 23, 2-Methyl-5-[1-(6-methyl-4-oxo-2-phenyl-chromen-8-yl)ethylamino]-thiazole-4-carboxylic acid 2,2,2-trifluoroacetic acid] |  |
| 5.30 to 6.00 | 5.30 to 6.00 |  |  | Cc1cc(C(C)Nc2ccc(Cl)nc2C(=O)O)c2oc(-c3ccccc3)c(I)c(=O)c2c1 (single isomer, unassigned; isomer i) [Example 153, 6-Chloro-3-[1-(3-iodo-6-methyl-4-oxo-2-phenyl-chromen-8-yl)ethylamino]pyridine-2-carboxylic acid, Isomer I] |  |
